Data: patent US20210332024A1, “MODULATORS OF PIN1 ACTIVITY AND USES THEREOF” (Yeda Research and Development Co. Ltd., priority 2019, published 2021)

Tests used:
[1] = system: MYCN-overexpressing PSNS neuroblasts; assay: Zebrafish embryo model of MYCN-driven neuroblastoma; assay type: in vivo
Text: Zebrafish were used for a model of childhood neuroblastoma, in which the tissue-specific overexpression of the human MYCN transgene using the dopamine β hydroxylase (dβh) promoter in the zebrafish peripheral sympathetic nerve system (PSNS) drives neuroblastoma tumorigenesis in zebrafish [Zhu et al., Cancer Cell 2012, 21:362-373]. The fish are also transgenic for a PSNS-specific dβh:EGFP reporter line, so that the tumors can be visualized by EGFP. In this model, hyperproliferation of sympathetic neuroblasts is evident in the […] (counterpart of the adrenal medulla) starting at 4 days post-fertilization (dpf).
Zebrafish embryos at 3 dpf were treated with different concentrations of the test compound in the egg water (reverse osmosis or RO water with 0.6 gm/liter instant ocean salts) for 4 days. The embryos were transferred to egg water containing freshly diluted drug after 2 days (5 dpf). The embryos were then imaged at 7 dpf, and the relative EGFP+MYCN-overexpressing neuroblast cross-sectional area for each experimental group was quantified.
The effect of Pin1-binding […] on neuroblastoma cells was assessed using a zebrafish embryo model of neuroblastoma, using procedures described in the Materials and Methods section hereinabove. Neuroblastoma is a pediatric malignancy derived from the peripheral sympathetic nervous system (PSNS). […] Overexpression of the MYCN oncogene, which is the oncogenic driver in approximately 20% of human high-risk neuroblastomas, in the PSNS of Tg(dβh:MYCN;dβh:EGFP) transgenic zebrafish, causes the fish to develop neuroblast hyperplasia (as shown, for example, in FIG. 42), which rapidly progress into fully transformed tumors that faithfully resemble human high-risk neuroblastoma [Zhu et al., Cancer Cell 2012, 21:362-373; He et al., Elife 2016, 5; Zimmerman et al., Cancer Discov 2016, 8:320-335].

[2] = molecular target: T1, Pin1 in IMR32 cells (Homo sapiens, UniProt Q13526); assay: Live cell competition assay with Pin1-3-DTB pull-down, IMR32 cells; assay type: cell-based; details: IMR32 cells
T1 construct: endogenous in cells; host or cells: IMR32
T1 sequence (Q13526 whole entry): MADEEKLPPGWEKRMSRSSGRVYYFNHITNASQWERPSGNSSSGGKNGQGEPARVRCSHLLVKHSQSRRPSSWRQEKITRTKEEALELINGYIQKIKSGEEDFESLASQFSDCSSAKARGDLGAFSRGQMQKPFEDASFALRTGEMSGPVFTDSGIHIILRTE
Method: The indicated cells were treated with increasing concentrations of either DMSO, Pin1-3, or Pin1-3-AcA for 5 hours. Cells were harvested by scraping and washed twice with PBS before lysis with 50 mM HEPES (pH 7.4), 1 mM EDTA, 10% glycerol, 1 mM TCEP, 150 mM NaCl, 1 mM EDTA, 0.5% NP-40, and protease inhibitor tablet (Roche cat. #4693159001). After clarifying (14,000 rpm for 15 minutes), samples were treated with the indicated concentrations of Pin1-3-DTB at 4° C. for 1 hour. Lysates were then incubated with streptavidin agarose resin (Thermo Scientific, cat. #20349) for 1.5 hour at 4° C. Beads were washed four times with 500 μl of washing buffer (50 mM HEPES (pH 7.5), 10 mM NaCl, 1 mM EDTA, 10% glycerol), then pelleted by centrifugation and dried. The beads were boiled for 5 minutes at 95° C. in 2×LDS+10% β-mercaptoethanol. Proteins of interest were then assessed via Western blotting using the bolt system (Life Technologies).
The indicated cells were plated in 10 cm plates with 2.5 million cells per plate in 6 ml of medium. The day after plating, cells were treated with the indicated concentrations of candidate inhibitor for the indicated time points. The cells were then washed two times with cold phosphate buffer saline (1 ml per 10 cm plate) and collected by scraping with a cell scraper. […]

## CC(C)(C)CN(C(=O)CCl)C1CCS(=O)(=O)C1 (stereo not shown) [Pin1-3, 2-chloro-N-(sulfolan-3-yl)-N-neopentylacetamide]
[1]; 100 μM for 4 days
  Cross-section of the EGFP-expressing PSNS cells: indistinguishable from that of controls without hyperproliferation
[1]; 25 to 100 μM in the egg water
  Toxicity in embryos: no evidence of toxicity
[1]; 25 to 100 μM in the egg water, 3 to 7 dpf
  Hyperproliferation of MYCN-overexpressing PSNS neuroblasts: suppressed the hyperproliferation of MYCN-overexpressing PSNS neuroblasts
[2]
  Concentration of full engagement of Pin1: 1 µM
